Results as given in patent US11104661B1, “Inhibiting human integrin (α-4) (β-7)” (Morphic Therapeutic, Inc., priority 2019, dated 2021).
Like-named read-outs stand apart in the source and are kept apart here.

Target: T1, α4β7 (Homo sapiens, UniProt P13612+P26010)
T1 construct: endogenous in cells; host or cells: RPMI 8866 cells
T1 sequence (P13612 34-1032): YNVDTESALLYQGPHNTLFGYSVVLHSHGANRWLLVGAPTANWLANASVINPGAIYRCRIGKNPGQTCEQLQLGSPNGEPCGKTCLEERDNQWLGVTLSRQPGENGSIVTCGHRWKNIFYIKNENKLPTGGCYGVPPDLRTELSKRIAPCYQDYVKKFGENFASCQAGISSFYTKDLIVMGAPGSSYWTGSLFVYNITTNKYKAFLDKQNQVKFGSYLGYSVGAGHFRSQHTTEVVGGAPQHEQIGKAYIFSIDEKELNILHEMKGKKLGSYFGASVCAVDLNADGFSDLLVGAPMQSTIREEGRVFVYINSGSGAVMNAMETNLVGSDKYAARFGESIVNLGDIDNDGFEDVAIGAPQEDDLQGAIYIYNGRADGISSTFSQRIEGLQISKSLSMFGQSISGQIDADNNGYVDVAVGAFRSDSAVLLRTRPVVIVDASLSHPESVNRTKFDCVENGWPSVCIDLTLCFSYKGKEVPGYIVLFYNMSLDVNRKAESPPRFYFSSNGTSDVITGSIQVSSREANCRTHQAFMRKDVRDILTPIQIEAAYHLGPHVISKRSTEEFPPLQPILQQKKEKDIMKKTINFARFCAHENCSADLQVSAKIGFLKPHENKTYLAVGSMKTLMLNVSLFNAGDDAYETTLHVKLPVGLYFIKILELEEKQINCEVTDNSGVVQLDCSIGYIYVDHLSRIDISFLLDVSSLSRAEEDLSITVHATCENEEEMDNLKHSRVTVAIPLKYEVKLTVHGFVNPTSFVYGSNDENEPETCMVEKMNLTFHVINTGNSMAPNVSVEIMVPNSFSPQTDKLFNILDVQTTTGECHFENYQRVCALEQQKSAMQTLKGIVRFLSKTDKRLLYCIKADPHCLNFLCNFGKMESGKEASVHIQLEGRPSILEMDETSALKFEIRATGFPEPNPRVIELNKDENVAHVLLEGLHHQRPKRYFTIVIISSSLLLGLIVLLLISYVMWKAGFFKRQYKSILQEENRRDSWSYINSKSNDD
T1 sequence (P26010 20-798): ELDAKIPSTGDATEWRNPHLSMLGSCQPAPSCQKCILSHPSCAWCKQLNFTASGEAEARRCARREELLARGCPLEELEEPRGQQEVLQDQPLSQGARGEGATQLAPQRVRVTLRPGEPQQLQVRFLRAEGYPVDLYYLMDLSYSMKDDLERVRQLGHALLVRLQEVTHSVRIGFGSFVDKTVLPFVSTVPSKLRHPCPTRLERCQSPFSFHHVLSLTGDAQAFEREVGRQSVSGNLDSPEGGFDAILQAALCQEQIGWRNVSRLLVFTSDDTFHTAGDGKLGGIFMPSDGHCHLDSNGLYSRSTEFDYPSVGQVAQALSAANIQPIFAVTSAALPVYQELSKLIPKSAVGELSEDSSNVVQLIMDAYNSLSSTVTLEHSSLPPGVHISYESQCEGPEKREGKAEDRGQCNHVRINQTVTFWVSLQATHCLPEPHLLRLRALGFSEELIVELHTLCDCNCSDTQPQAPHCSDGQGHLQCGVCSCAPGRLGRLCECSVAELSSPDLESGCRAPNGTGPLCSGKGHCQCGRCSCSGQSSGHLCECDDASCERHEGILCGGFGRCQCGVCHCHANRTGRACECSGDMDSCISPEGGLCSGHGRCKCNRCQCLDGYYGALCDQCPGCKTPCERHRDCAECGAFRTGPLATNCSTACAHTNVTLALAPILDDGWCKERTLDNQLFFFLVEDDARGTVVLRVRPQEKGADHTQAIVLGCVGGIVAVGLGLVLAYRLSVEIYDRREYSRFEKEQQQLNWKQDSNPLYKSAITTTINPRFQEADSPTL
Assay: Cell adhesion assay, RPMI8866 cells on MAdCAM coated plates (Example 7)
Assay type: cell-based
Settings: RPMI8866 cells adhering to recombinant human MAdCAM, read-out: CA Assay (Example 7)
Experimental: Three in vitro assays were used to examine the α4β7 mechanistic process used by cells: 1) ligand:receptor affinity, 2) the avidity of those interactions on a cell's surface, and 3) how those interactions fare under an imposing force. In Example 5, a Fluorescence Polarization (FP) assay is used to measure compound activity through binding competition with the fluorescein-labeled peptide. In Example 6, the potency of compounds against α4β7 is measured in the cell-based ligand binding assay (LBA), using RPMI 8866 cells incubated with the compound samples in competition with soluble MAdCAM-1 ligand. In Example 7, activity of compounds is evaluated in a cell adhesion assay that mechanistically tests what occurs in vivo when trafficking cells utilize α4β7 to adhere to MAdCAM-1 expressing HEVs of the gut during the extravasation process. In the cell adhesion assay of Example 7, a MAdCAMI1-(Fc) is coated on plastic, and α4β7 expressing cells (RPMI-8866) are allowed to adhere to the coated surface in the presence of the test compounds. Next, the force of washing with buffer is applied to cells thereby testing the strength of that adhesion. Unattached cells are removed and the remaining adherent cells are quantified.
Example 7 describes a cell adhesion assay.
To each well of a 96 well plate, 100 ug of recombinant human MAdCAM in 100 ul PBS is added and incubated overnight at 4° C. After incubation MAdCAM is removed by aspiration and 200 ul of PBS+1% BSA is added to block the plate for 2 hours at 37° C. and 5% CO2. During this incubation dilution curves of compound are made in 100% DMSO in 96 well V bottom plates. 1.75 ul of diluted compounds are then transferred to a new 96 well U bottom plate containing 20 ul of assay media (phosphate free DMEM+25 mM HEPES+1% BSA). To this an additional 155 ul of assay media is added with mixing by pipetting up and down. This mixture is allowed to incubate for 15 minutes at 37° C. and 5% CO2. After incubation 175 ul of assay media containing 2e6/mL RPMI8866 cells is added to compound containing wells without mixing and plate is allowed to incubate for another 15 minutes at 37° C. and 5% CO2. During this incubation MAdCAM coated plates are removed from incubator and washed twice with 200 ul PBS+0.1% BSA. […] This plate is then incubated at 37° C. and 5% CO2 for 1 hour. After incubation plates are washed twice with 200 ul and once with 50 ul of phenol free RPMI+1% BSA. A final 50 ul of phenol free RPMI+1% BSA is added to wells after last wash. Next 50 ul of Promega cell titer glow is added to the wells. Plate is incubated on shaker for 2 minutes at 200 RPM followed by another 8 minutes off shaker before having the luminescence read on a Biotek Citation 5 plate reader. Raw data is converted to % inhibition compared to bottom of curve and analyzed using a 4-parameter non linear curve in Prism to determine IC50 and IC90.

SMILES | IC50 (Table 4 comparative compounds) [nM] | IC50 (Table 3) [nM]
Cc1cccc(C)c1-c1cccc([C@H](CC(=O)O)NC(=O)[C@H](CC(C)C)n2ccc(CCN(C)C)cc2=O)c1 | 10 to 50 | –
Cc1cccc(C)c1-c1cccc([C@H](CC(=O)O)NC(=O)[C@H](CC(C)C)n2cccc(CCN(C)C)c2=O)c1 | > 100 | –
Cc1cccc(C)c1-c1cccc([C@H](CC(=O)O)NC(=O)[C@H](CC(C)C)n2cc(CN3CC[C@@H](F)C3)ccc2=O)c1 | 10 to 50 | –
Cc1cccc(C)c1-c1cncc([C@H](CC(=O)O)NC(=O)[C@H](CC(C)C)N2CC[C@@H](C(F)(F)F)CC2=O)c1 | > 50 | –
CC(C)C[C@@H](C(=O)N[C@@H](CC(=O)O)c1ccc(-c2ccc(F)cc2)cc1)n1cc(CCN(C)C)c(C(F)(F)F)cc1=O | > 500 | –
CC(C)C[C@@H](C(=O)N[C@@H](CC(=O)O)c1ccc(-c2ccc(F)cc2)cc1)n1cc(CCN2CC(F)C2)cc(F)c1=O | > 500 | –
CC(C)C[C@@H](C(=O)N[C@@H](CC(=O)O)c1ccc(-c2ccccc2)cc1)n1cc(CCN2CC(F)C2)cc(F)c1=O | > 500 | –
CC(C)C[C@@H](C(=O)N[C@@H](CC(=O)O)c1ccc(-c2ccccc2)cc1)n1cc(CCN(C)C)c(C(F)(F)F)cc1=O | > 500 | –
Cc1ccccc1-c1cc([C@H](CC(=O)O)NC(=O)[C@H](CC(C)C)n2ccccc2=O)ccc1C | > 500 | –
Cc1ccccc1-c1cc([C@H](CC(=O)O)NC(=O)C(CC(C)C)n2ccccc2=O)ccn1 (stereo partly drawn) | > 500 | –
COC[C@@H](C(=O)N[C@@H](CC(=O)O)c1cccc(-c2c(C)cccc2C)c1)n1ccc(C)cc1=O | > 500 | –
Cc1cc(-c2c(C)ccc(F)c2C)cc([C@H](CC(=O)O)NC(=O)C(CC(C)C)n2cc(CCN3CCC3)c(C(F)(F)F)cc2=O)c1F (single isomer, unassigned) [AF-P2] | – | < 5
COc1ccc(C)c(-c2cc(C)c(F)c([C@H](CC(=O)O)NC(=O)C(CC(C)C)n3cc(CCN4CCC4)c(C(F)(F)F)cc3=O)c2)c1C (single isomer, unassigned) [AG-P2] | – | < 5
Cc1cccc(C)c1-c1cccc([C@H](CC(=O)O)NC(=O)[C@H](CC(C)C)n2cc(CN3CC(F)C3)ccc2=O)c1 [drawing 572] | > 50 | –
Cc1cccc(C)c1-c1cccc([C@H](CC(=O)O)NC(=O)[C@H](CC(C)C)n2cc(CN3CC(F)C3)ccc2=O)c1 [drawing 577] | > 50 | –
Cc1cccc(C)c1-c1cccc([C@H](CC(=O)O)NC(=O)[C@H](CC(C)C)n2cc(CN3CC(F)C3)ccc2=O)c1 [drawing 594] | > 50 | –

The next lines start with the values.

IC50 (Table 4 comparative compounds) [nM] | IC50 (Table 3) [nM] | SMILES
5 to 10 | – | Cc1cccc(C)c1-c1cccc([C@H](CC(=O)O)NC(=O)[C@H](CC(C)C)n2cc(CCN(C)C)ccc2=O)c1
10 to 50 | – | Cc1cccc(C)c1-c1cncc([C@H](CC(=O)O)NC(=O)[C@H](CC(C)C)n2ccc(C(F)(F)F)cc2=O)c1
10 to 50 | – | Cc1ccn([C@@H](CC(C)C)C(=O)N[C@@H](CC(=O)O)c2cncc(-c3c(C)cccc3C)c2)c(=O)c1
> 50 | – | Cc1cccc(C)c1-c1cncc([C@H](CC(=O)O)NC(=O)C(CC(C)C)n2cc(C(F)(F)F)ccc2=O)c1 (stereo partly drawn)
> 50 | – | Cc1cccc(C)c1-c1cncc([C@H](CC(=O)O)NC(=O)[C@H](CC(C)C)n2cc(CN3CC(F)C3)ccc2=O)c1
> 500 | – | Cc1ccccc1-c1cccc([C@H](CC(=O)O)NC(=O)[C@H](CC(C)C)n2cccc(C)c2=O)c1
> 500 | – | Cc1ccccc1-c1cccc([C@H](CC(=O)O)NC(=O)[C@H](CC(C)C)n2ccncc2=O)c1
> 500 | – | COc1cccc(F)c1-c1cccc([C@H](CC(=O)O)NC(=O)[C@H](CC(C)C)n2cnc3ccccc3c2=O)c1
> 500 | – | Cc1ccccc1-c1cccc([C@H](CC(=O)O)NC(=O)[C@H](CC(C)C)n2ccccc2=O)c1
> 500 | – | COc1ccc([C@H](CC(=O)O)NC(=O)C(CC(C)C)n2ccccc2=O)cc1-c1ccccc1C (stereo partly drawn)
> 500 | – | Cc1ccc([C@@H](C(=O)N[C@@H](CC(=O)O)c2cncc(-c3c(C)cccc3C)c2)N2CC(C)CCC2=O)cc1 (stereo partly drawn)
> 500 | – | Cc1cccc(C)c1-c1cc([C@H](CC(=O)O)NC(=O)[C@H](CC(C)C)n2ccccc2=O)ccn1
> 500 | – | Cc1ccccc1-c1cc([C@H](CC(=O)O)NC(=O)C(CC(C)C)n2ccccc2=O)ccc1C#N (stereo partly drawn)
> 100 | – | Cc1cccc(C)c1-c1cncc([C@H](CC(=O)O)NC(=O)[C@H](CC(C)C)n2ccccc2=O)c1
– | < 5 | Cc1cc(C)c(-c2cc(C)c(F)c([C@H](CC(=O)O)NC(=O)C(CC(C)C)n3cc(CCN(C)C)c(C(F)(F)F)cc3=O)c2)c(C)c1 (single isomer, unassigned) [AC-P2]
– | < 5 | Cc1cc(-c2c(C)cccc2C)cc([C@H](CC(=O)O)NC(=O)C(CC(C)C)n2cc(CCN3CC(F)C3)cc(F)c2=O)c1F (single isomer, unassigned) [AV-P2]
– | < 5 | Cc1cccc(C)c1-c1cc([C@H](CC(=O)O)NC(=O)C(CC(C)C)n2cc(CCN3CCC3)c(C(F)(F)F)cc2=O)c(F)c(C(F)(F)F)c1 (single isomer, unassigned) [G-P2]
> 50 | – | Cc1cccc(C)c1-c1cccc([C@H](CC(=O)O)NC(=O)[C@H](CC(C)C)n2cc(CN3CC(F)C3)ccc2=O)c1 [drawing 585]
> 50 | – | Cc1cccc(C)c1-c1cccc([C@H](CC(=O)O)NC(=O)[C@H](CC(C)C)n2cc(CN3CC(F)C3)ccc2=O)c1 [drawing 589]
< 5 | – | Cc1cccc(C)c1-c1cccc([C@H](CC(=O)O)NC(=O)[C@H](CC(C)C)n2cc(CN3CC(F)C3)ccc2=O)c1 [drawing 599]
